Experimental data reported in the kinase profiling compilation of Christmann-Franck et al. (2016).

Key:
Assay in all cases: KINOMEscan competition binding
Details in all cases: compound 10.0 µM
MAPK7 (human) = MAPK7 (human) (UniProt Q13164)
MARK4 (human) = MARK4 (human) (UniProt Q96L34)
EPHB1 (human) = EPHB1 (human) (UniProt P54762)
ICK (human) = ICK (human) (UniProt Q9UPZ9)
EIF2AK1 (human) = EIF2AK1 (human) (UniProt Q9BQI3)
ADCK4 (human) = ADCK4 (human) (UniProt Q96D53)
CSNK2A1 (human) = CSNK2A1 (human) (UniProt P68400)
PIP4K2C (human) = PIP4K2C (human) (UniProt Q8TBX8)
MYO3A (human) = MYO3A (human) (UniProt Q8NEV4)
MYO3A (human), sequence (Q8NEV4 whole entry, looked up): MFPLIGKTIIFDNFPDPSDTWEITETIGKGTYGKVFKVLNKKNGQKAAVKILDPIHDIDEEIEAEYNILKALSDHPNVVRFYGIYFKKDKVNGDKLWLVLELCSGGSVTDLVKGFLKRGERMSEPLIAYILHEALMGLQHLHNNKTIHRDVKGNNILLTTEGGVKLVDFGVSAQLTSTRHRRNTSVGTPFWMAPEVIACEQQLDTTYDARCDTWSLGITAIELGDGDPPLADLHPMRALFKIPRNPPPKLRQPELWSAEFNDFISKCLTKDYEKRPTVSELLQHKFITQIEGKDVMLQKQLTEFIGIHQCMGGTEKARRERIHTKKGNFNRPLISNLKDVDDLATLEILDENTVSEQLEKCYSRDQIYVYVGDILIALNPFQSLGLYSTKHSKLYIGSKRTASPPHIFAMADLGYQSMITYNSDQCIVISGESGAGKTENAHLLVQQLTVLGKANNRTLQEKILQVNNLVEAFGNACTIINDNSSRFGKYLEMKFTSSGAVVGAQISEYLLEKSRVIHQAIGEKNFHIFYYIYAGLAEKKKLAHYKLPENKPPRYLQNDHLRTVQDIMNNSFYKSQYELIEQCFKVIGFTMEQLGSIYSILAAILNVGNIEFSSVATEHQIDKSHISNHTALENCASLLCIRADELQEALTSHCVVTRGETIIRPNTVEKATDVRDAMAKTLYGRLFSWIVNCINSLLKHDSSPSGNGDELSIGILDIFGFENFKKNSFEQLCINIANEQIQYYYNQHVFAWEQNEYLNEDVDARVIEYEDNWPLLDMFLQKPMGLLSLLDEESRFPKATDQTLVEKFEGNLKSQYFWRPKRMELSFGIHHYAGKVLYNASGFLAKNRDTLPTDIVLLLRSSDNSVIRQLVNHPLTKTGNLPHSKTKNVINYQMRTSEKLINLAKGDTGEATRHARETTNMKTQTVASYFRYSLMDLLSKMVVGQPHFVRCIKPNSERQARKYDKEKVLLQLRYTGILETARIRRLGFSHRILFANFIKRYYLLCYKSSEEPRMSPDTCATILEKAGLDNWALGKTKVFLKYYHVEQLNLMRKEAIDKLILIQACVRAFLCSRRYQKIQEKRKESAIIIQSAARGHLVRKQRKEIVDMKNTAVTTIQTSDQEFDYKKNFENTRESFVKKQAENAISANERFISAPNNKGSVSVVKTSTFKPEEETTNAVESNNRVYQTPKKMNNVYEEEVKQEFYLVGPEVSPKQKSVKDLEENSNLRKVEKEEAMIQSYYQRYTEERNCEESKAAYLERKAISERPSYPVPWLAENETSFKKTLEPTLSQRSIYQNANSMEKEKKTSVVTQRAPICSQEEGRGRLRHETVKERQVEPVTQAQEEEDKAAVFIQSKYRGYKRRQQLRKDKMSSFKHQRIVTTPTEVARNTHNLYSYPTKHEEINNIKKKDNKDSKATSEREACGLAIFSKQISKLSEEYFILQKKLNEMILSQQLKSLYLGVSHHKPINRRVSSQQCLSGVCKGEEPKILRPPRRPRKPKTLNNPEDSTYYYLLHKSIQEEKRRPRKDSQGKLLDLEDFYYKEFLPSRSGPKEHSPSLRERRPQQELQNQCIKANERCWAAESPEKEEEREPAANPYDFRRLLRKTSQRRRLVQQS

EPHA3 (human) = EPHA3 (human) (UniProt P29320)
EPHA3 (human), sequence (P29320 whole entry, looked up): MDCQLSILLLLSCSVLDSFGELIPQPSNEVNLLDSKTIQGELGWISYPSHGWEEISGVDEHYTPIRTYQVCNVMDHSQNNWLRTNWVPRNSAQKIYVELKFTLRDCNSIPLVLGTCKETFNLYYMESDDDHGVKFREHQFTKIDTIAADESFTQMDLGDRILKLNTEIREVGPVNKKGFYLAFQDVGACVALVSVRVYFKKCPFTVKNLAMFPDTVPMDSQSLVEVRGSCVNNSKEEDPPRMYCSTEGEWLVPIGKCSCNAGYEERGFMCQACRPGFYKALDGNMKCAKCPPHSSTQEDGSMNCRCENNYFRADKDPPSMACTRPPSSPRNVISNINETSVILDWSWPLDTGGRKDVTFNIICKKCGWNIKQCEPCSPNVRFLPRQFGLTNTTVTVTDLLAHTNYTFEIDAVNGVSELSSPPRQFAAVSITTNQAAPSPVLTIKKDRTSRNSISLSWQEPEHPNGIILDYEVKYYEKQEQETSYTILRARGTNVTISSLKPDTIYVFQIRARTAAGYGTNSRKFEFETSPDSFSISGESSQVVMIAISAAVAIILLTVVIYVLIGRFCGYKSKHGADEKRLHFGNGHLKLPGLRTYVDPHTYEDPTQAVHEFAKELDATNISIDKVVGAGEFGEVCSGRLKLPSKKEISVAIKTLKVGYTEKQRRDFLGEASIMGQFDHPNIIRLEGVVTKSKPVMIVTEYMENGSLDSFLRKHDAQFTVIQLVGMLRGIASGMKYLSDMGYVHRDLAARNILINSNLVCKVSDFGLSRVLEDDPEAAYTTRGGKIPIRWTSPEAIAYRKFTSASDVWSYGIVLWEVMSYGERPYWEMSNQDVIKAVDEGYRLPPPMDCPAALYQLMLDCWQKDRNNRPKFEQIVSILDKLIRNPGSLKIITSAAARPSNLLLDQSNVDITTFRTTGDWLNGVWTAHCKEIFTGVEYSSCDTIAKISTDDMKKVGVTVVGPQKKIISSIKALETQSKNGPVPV

DAPK1 (human) = DAPK1 (human) (UniProt P53355)
NEK5 (human) = NEK5 (human) (UniProt Q6P3R8)
MAPK4 (human) = MAPK4 (human) (UniProt P31152)
PRKCE (human) = PRKCE (human) (UniProt Q02156)
TRPM6 (human) = TRPM6 (human) (UniProt Q9BX84)
HIPK4 (human) = HIPK4 (human) (UniProt Q8NE63)
CHEK1 (human) = CHEK1 (human) (UniProt O14757)
SRPK2 (human) = SRPK2 (human) (UniProt P78362)
PAK3 (human) = PAK3 (human) (UniProt O75914)
PIM2 (human) = PIM2 (human) (UniProt Q9P1W9)
PIM2 (human), sequence (Q9P1W9 whole entry, looked up): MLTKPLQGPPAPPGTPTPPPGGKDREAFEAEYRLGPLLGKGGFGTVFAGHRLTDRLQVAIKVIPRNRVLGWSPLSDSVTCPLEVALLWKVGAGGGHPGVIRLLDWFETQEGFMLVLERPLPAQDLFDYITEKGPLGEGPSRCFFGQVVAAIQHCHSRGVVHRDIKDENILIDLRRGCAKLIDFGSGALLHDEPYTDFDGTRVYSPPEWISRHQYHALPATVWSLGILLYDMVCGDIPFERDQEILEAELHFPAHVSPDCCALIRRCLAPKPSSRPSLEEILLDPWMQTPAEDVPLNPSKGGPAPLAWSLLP

PIK3CD (human) = PIK3CD (human) (UniProt O00329)
CAMK2B (human) = CAMK2B (human) (UniProt Q13554)
HIPK2 (human) = HIPK2 (human) (UniProt Q9H2X6)
PAK2 (human) = PAK2 (human) (UniProt Q13177)
PAK2 (human), sequence (Q13177 whole entry, looked up): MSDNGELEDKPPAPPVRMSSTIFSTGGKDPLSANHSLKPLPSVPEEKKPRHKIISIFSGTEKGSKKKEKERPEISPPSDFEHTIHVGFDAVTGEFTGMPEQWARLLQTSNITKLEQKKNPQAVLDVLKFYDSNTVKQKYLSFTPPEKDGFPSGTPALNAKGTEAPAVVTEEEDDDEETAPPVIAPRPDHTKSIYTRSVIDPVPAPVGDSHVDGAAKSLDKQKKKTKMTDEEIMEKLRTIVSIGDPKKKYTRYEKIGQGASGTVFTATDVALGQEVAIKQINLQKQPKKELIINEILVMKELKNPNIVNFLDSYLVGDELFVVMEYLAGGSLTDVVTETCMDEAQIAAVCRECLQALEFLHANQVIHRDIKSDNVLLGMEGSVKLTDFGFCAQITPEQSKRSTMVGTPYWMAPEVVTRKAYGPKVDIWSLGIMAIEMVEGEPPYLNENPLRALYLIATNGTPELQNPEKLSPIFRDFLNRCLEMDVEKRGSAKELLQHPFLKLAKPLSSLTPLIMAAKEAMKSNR

MAP3K1 (human) = MAP3K1 (human) (UniProt Q13233)
EPHB3 (human) = EPHB3 (human) (UniProt P54753)
DCLK3 (human) = DCLK3 (human) (UniProt Q9C098)
CDK17 (human) = CDK17 (human) (UniProt Q00537)
LYN (human) = LYN (human) (UniProt P07948)
LYN (human), sequence (P07948 whole entry, looked up): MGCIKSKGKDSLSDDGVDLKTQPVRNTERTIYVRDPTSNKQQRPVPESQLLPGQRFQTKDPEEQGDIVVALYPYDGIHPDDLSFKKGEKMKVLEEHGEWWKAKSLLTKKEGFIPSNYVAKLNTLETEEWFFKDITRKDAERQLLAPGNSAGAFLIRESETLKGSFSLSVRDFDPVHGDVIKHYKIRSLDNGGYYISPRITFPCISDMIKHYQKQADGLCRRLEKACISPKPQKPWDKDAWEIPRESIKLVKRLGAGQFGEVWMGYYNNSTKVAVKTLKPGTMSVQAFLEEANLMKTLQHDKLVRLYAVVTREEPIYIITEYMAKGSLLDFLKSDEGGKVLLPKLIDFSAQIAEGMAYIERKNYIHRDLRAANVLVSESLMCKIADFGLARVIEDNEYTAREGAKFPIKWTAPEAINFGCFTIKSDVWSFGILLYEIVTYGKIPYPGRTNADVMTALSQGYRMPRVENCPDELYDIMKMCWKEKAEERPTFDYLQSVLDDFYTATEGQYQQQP

MAST1 (human) = MAST1 (human) (UniProt Q9Y2H9)
MAP2K4 (human) = MAP2K4 (human) (UniProt P45985)
MAP3K15 (human) = MAP3K15 (human) (UniProt Q6ZN16)
NEK9 (human) = NEK9 (human) (UniProt Q8TD19)
NEK9 (human), sequence (Q8TD19 whole entry, looked up): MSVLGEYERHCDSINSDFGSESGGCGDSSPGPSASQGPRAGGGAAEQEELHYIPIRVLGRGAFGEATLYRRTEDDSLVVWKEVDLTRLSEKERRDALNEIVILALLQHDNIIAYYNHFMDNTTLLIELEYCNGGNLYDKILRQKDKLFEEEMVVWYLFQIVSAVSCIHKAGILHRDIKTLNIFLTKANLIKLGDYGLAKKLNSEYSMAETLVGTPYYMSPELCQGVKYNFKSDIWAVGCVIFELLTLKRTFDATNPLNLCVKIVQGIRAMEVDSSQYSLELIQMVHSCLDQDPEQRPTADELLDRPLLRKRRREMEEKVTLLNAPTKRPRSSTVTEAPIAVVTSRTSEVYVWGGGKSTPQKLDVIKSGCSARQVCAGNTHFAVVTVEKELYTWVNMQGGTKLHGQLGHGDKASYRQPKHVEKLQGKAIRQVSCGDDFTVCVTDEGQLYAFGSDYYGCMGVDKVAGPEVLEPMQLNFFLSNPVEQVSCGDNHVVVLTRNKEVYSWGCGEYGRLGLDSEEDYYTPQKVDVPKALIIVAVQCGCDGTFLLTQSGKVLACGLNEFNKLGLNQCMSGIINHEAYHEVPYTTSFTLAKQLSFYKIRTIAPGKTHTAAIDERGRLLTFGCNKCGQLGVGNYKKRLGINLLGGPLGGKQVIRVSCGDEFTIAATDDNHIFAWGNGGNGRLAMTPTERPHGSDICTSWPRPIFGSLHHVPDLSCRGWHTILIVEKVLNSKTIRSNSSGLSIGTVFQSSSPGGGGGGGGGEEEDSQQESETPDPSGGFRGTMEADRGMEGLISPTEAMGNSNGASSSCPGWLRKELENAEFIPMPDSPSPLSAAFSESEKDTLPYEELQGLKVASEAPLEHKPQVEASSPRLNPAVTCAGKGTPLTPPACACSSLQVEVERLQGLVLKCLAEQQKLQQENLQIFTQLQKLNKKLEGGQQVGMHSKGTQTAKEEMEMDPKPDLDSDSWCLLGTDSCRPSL

CSNK1A1L (human) = CSNK1A1L (human) (UniProt Q8N752)
TAOK2 (human) = TAOK2 (human) (UniProt Q9UL54)
CDKL2 (human) = CDKL2 (human) (UniProt Q92772)
TAOK1 (human) = TAOK1 (human) (UniProt Q7L7X3)
GRK4 (human) = GRK4 (human) (UniProt P32298)
RPS6KA6 KD2 (human) = RPS6KA6 KD2 (human) (UniProt Q9UK32)
DCLK2 (human) = DCLK2 (human) (UniProt Q8N568)

Structure (SMILES): COc1cc2ncnc(Nc3cccc(Cl)c3)c2cc1OC
- kinase still bound, per cent of control (MAPK7 (human)): 100%
- kinase still bound, per cent of control (MARK4 (human)): 100%
- kinase still bound, per cent of control (EPHB1 (human)): 67%
- kinase still bound, per cent of control (ICK (human)): 100%
- kinase still bound, per cent of control (EIF2AK1 (human)): 65%
- kinase still bound, per cent of control (ADCK4 (human)): 28%
- kinase still bound, per cent of control (CSNK2A1 (human)): 19%
- kinase still bound, per cent of control (PIP4K2C (human)): 31%
- kinase still bound, per cent of control (MYO3A (human)): 83%
- kinase still bound, per cent of control (EPHA3 (human)): 28%
- kinase still bound, per cent of control (DAPK1 (human)): 53%
- kinase still bound, per cent of control (NEK5 (human)): 93%
- kinase still bound, per cent of control (MAPK4 (human)): 16%
- kinase still bound, per cent of control (PRKCE (human)): 75%
- kinase still bound, per cent of control (TRPM6 (human)): 77%
- kinase still bound, per cent of control (HIPK4 (human)): 6.1%
- kinase still bound, per cent of control (CHEK1 (human)): 100%
- kinase still bound, per cent of control (SRPK2 (human)): 62%
- kinase still bound, per cent of control (PAK3 (human)): 25%
- kinase still bound, per cent of control (PIM2 (human)): 74%
- kinase still bound, per cent of control (PIK3CD (human)): 71%
- kinase still bound, per cent of control (CAMK2B (human)): 95%
- kinase still bound, per cent of control (HIPK2 (human)): 80%
- kinase still bound, per cent of control (PAK2 (human)): 53%
- kinase still bound, per cent of control (MAP3K1 (human)): 16%
- kinase still bound, per cent of control (EPHB3 (human)): 97%
- kinase still bound, per cent of control (DCLK3 (human)): 52%
- kinase still bound, per cent of control (CDK17 (human)): 79%
- kinase still bound, per cent of control (LYN (human)): 11%
- kinase still bound, per cent of control (MAST1 (human)): 79%
- kinase still bound, per cent of control (MAP2K4 (human)): 85%
- kinase still bound, per cent of control (MAP3K15 (human)): 34%
- kinase still bound, per cent of control (NEK9 (human)): 78%
- kinase still bound, per cent of control (CSNK1A1L (human)): 72%
- kinase still bound, per cent of control (TAOK2 (human)): 76%
- kinase still bound, per cent of control (CDKL2 (human)): 84%
- kinase still bound, per cent of control (TAOK1 (human)): 38%
- kinase still bound, per cent of control (GRK4 (human)): 100%
- kinase still bound, per cent of control (RPS6KA6 KD2 (human)): 38%
- kinase still bound, per cent of control (DCLK2 (human)): 88%

Structure (SMILES): CC1=C(C(=O)Nc2cc3cn[nH]c3cc2F)C(c2ccc(C(F)(F)F)cc2)CC(=O)N1 (stereo not given)
- kinase still bound, per cent of control (MAPK7 (human)): 82%
- kinase still bound, per cent of control (MARK4 (human)): 100%
- kinase still bound, per cent of control (EPHB1 (human)): 91%
- kinase still bound, per cent of control (ICK (human)): 79%
- kinase still bound, per cent of control (EIF2AK1 (human)): 89%
- kinase still bound, per cent of control (ADCK4 (human)): 94%
- kinase still bound, per cent of control (CSNK2A1 (human)): 81%
- kinase still bound, per cent of control (PIP4K2C (human)): 98%
- kinase still bound, per cent of control (MYO3A (human)): 85%
- kinase still bound, per cent of control (EPHA3 (human)): 88%
- kinase still bound, per cent of control (DAPK1 (human)): 81%
- kinase still bound, per cent of control (NEK5 (human)): 90%
- kinase still bound, per cent of control (MAPK4 (human)): 100%
- kinase still bound, per cent of control (PRKCE (human)): 100%
- kinase still bound, per cent of control (TRPM6 (human)): 70%
- kinase still bound, per cent of control (HIPK4 (human)): 86%
- kinase still bound, per cent of control (CHEK1 (human)): 100%
- kinase still bound, per cent of control (SRPK2 (human)): 100%
- kinase still bound, per cent of control (PAK3 (human)): 36%
- kinase still bound, per cent of control (PIM2 (human)): 100%
- kinase still bound, per cent of control (PIK3CD (human)): 98%
- kinase still bound, per cent of control (CAMK2B (human)): 94%
- kinase still bound, per cent of control (HIPK2 (human)): 87%
- kinase still bound, per cent of control (PAK2 (human)): 88%
- kinase still bound, per cent of control (MAP3K1 (human)): 90%
- kinase still bound, per cent of control (EPHB3 (human)): 84%
- kinase still bound, per cent of control (DCLK3 (human)): 70%
- kinase still bound, per cent of control (CDK17 (human)): 91%
- kinase still bound, per cent of control (LYN (human)): 72%
- kinase still bound, per cent of control (MAST1 (human)): 77%
- kinase still bound, per cent of control (MAP2K4 (human)): 71%
- kinase still bound, per cent of control (MAP3K15 (human)): 77%
- kinase still bound, per cent of control (NEK9 (human)): 89%
- kinase still bound, per cent of control (CSNK1A1L (human)): 98%
- kinase still bound, per cent of control (TAOK2 (human)): 96%
- kinase still bound, per cent of control (CDKL2 (human)): 94%
- kinase still bound, per cent of control (TAOK1 (human)): 53%
- kinase still bound, per cent of control (GRK4 (human)): 99%
- kinase still bound, per cent of control (RPS6KA6 KD2 (human)): 85%
- kinase still bound, per cent of control (DCLK2 (human)): 87%
